# From article PMC6858373 (Scientific Reports, 2019)
# pIC50: −log10 of the molar value. Where two headings read alike, the source gives them in different places.
# Key:
# [1] = target: T1, FGF14:Nav1.6 C-tail complex (Homo sapiens, UniProt Q92915+Q9UQD0); assay: Split-luciferase complementation assay (LCA) in Clone V double stable HEK293 cells; type: cell-based; settings: for Split Luciferase Assay Z-score Set 1 / Split Luciferase Assay % Lum Set 1 / Split Luciferase Assay Z-score Set 2 / Split Luciferase Assay %Lum Set 2: CC_NCI screening; for Split Luciferase Assay Z-score Set 1 / Split Luciferase Assay % Lum Set 1: biological replicate Set 1; for Split Luciferase Assay Z-score Set 1 / Split Luciferase Assay Z-score Set 2: normalized to on-plate 0.3% DMSO controls; for Split Luciferase Assay % Lum Set 1 / Split Luciferase Assay %Lum Set 2: normalized to on-plate 0.3% DMSO controls (n=16 per plate); for Split Luciferase Assay Z-score Set 2 / Split Luciferase Assay %Lum Set 2: biological replicate Set 2; for Split Luciferase Assay %Lum Avg: average of Set 1 and Set 2, normalized to 0.3% DMSO controls
# T1 construct: polymerase chain reaction (PCR) amplification of the FGF14 open reading frame (nt 1–855); C-terminal fragment of Nav1.6 (amino acids 1763–1976) fused with CD4ΔC-tail (amino acids 1–395); expressed in transfected cells
# [2] = target: full-length P. pyralis luciferase (Photinus pyralis, UniProt P08659, K549A/L550V/N119G/N50D/S548I); type: cell-based
# [3] = in vitro; settings: human
# [4] = system: Clone V cells; assay: CellTiter Blue (CTB) cell viability counter-screen; settings: CC_NCI screening; normalized to on-plate 0.3% DMSO controls
# [5] = system: Clone V cells; settings: human
# [6] = CC_NCI screening, normalized to on-plate 0.3% DMSO controls
# T1 sequence (Q92915 1-252 isoform Q92915-2): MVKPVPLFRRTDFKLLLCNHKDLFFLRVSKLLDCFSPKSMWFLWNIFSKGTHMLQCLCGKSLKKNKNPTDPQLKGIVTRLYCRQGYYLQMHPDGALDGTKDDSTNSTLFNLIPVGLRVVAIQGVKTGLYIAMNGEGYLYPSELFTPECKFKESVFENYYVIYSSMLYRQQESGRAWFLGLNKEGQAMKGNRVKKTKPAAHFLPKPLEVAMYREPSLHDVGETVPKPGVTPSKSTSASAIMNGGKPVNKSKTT
# T1 sequence (Q9UQD0 1763-1976 limits assumed): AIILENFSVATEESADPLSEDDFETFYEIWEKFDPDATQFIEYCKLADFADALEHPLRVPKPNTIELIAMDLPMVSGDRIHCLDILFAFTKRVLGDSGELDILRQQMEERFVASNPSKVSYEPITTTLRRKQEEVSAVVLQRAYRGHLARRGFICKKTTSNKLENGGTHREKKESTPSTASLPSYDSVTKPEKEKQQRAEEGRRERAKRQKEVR
# full-length P. pyralis luciferase, sequence (P08659 whole entry N50D/N119G/S548I/K549A/L550V, looked up): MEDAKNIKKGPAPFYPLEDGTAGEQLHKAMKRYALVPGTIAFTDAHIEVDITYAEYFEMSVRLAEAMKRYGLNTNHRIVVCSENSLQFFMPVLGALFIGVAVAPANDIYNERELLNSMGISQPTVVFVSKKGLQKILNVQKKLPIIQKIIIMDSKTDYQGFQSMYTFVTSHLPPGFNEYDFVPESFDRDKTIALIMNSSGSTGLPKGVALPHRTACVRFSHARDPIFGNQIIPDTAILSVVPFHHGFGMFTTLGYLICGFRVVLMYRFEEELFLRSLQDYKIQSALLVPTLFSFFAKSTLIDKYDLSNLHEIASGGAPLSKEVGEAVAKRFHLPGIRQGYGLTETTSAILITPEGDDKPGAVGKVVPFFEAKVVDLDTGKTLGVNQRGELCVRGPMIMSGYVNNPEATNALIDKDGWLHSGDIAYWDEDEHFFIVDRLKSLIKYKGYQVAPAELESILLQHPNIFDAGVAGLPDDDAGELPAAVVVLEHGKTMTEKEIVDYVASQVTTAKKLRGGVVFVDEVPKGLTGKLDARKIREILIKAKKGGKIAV
SMILES,Split Luciferase Assay Z-score Set 1 [1],Split Luciferase Assay % Lum Set 1 [1] [%],Split Luciferase Assay Z-score Set 2 [1],Split Luciferase Assay %Lum Set 2 [1] [%],Split Luciferase Assay %Lum Avg [1] [%],"Luciferase Assay % Lum (full-length luciferase counter-screen) [2, 6] [%]","Luciferase Assay Z-score (full-length luciferase counter-screen) [2, 6]","viability at 16 h, 30 µM ([3]; Clone V cells) [%]",Toxicity Assay Z-score (CTB cell viability) [4],further results
CCCCCCCCc1ccc(CCC(N)(CO)CO)cc1 [Fingolimod],-0.06,99.25,0.58,107.15,103.20,94.97,-0.64,110,1.42,
CO[C@H]1C[C@@H]2CC[C@@H](C)[C@@](O)(O2)C(=O)C(=O)N2CCCC[C@H]2C(=O)O[C@H]([C@H](C)C[C@@H]2CC[C@@H](O)[C@H](OC)C2)CC(=O)[C@H](C)/C=C(\C)[C@@H](O)[C@@H](OC)C(=O)[C@H](C)C[C@H](C)/C=C/C=C/C=C/1C [Sirolimus],1.26,115.56,0.41,105.07,110.32,80.58,-2.49,103,0.38,
Oc1c2ccccc2c2c3c(cccc13)N=N2 [SP600125],0.99,112.30,-1.20,85.31,98.80,110.92,1.40,109,1.21,
Nc1ccccc1NC(=O)c1ccc(CNc2nccc(-c3cccnc3)n2)cc1 [MGCD0103],-1.82,77.51,-1.96,75.94,76.73,90.12,-1.27,104,0.52,
CC(=O)O[C@@]12CO[C@@H]1C[C@H](O)[C@@]1(C)C(=O)[C@H](O)C3=C(C)[C@@H](OC(=O)[C@H](O)[C@@H](NC(=O)OC(C)(C)C)c4ccccc4)C[C@@](O)([C@@H](OC(=O)c4ccccc4)[C@H]21)C3(C)C [Docetaxel],6.00,174.26,4.48,155.01,164.63,101.54,0.20,107,0.98,
CS(=O)(=O)c1ccc(C2=C(c3ccccc3)C(=O)OC2)cc1 [ROFECOXIB],1.78,122.08,,,87.57,102.66,0.34,109,1.28,
"C[C@@H](Oc1cc(-c2cnn(C3CCNCC3)c2)cnc1N)c1c(Cl)ccc(F)c1Cl [Crizotinib, reference compound]",-5.24,35.11,-5.34,34.33,34.72,91.93,-1.03,102,0.27,"Z-score (LCA primary screening) ([1]; 30 µM, 384-well, average of primary screening (n = 2), vs on-plate 0.3% DMSO): −5.29; dose-response behavior of repurchased compounds ([1]; 10-point dose response 0.25-50 µM, Clone V cells): purely inhibitory effects; IMin (% Luminescence) ([1]; antagonists, Clone V cells, 384-well, normalized to DMSO): 34.72 % Luminescence; action toward the FGF14:Nav1.6 C-tail interaction ([1]; dose-dependency validation using fresh compound samples): acted as antagonists; pIC50 ([1]; estimated, 8-point dose response 0.25-30 µM, n = 4 per concentration, library compounds, read-out: IC50): 4.91; pIC50 ([1]; repurchased compounds, 10-point dose response 0.25-50 µM, n = 8 per concentration, Clone V cells, 384-well, read-out: in-cell IC50): 4.81"
Cc1cc(Nc2cc(N3CCN(C)CC3)nc(Sc3ccc(NC(=O)C4CC4)cc3)n2)[nH]n1 [TOZASERTIB],-1.55,80.77,-6.02,26.01,53.39,73.72,-3.37,106,0.86,
CO[C@@]12[C@H](COC(N)=O)C3=C(C(=O)C(C)=C(N)C3=O)N1C[C@@H]1N[C@@H]12 [Mitomycin],0.73,109.04,-0.01,99.87,104.45,110.98,1.41,,,Toxicity Assay Z-score (CTB cell viability) [5]: 2.45; viability [3]: 118%
CN(C)c1nc(N(C)C)nc(N(C)C)n1 [Altretamine],-0.59,92.73,1.85,122.76,107.74,,,,,"Luciferase Assay % Lum (full-length luciferase counter-screen) [2]: 97.84%; Luciferase Assay Z-score (full-length luciferase counter-screen) [2]: -0.28; Toxicity Assay Z-score (CTB cell viability) ([5]; 16 h, 30 µM): 0.43; viability at 16 h, 30 µM [3]: 103%"
Cc1[nH]c2ccccc2c1CCNCc1ccc(/C=C/C(=O)NO)cc1 [LBH-589],-1.99,75.34,-0.18,97.79,86.56,101.54,0.20,106,,"Toxicity Assay Z-score (CTB cell viability) ([5]; 16 h, 30 µM): 0.78"
